Earlier results in US20240199641A1, “QUINAZOLINE-4(3H)-ONE DERIVATIVES AS NEGATIVE ALLOSTERIC MODULATORS OF METABOTROPIC GLUTAMATE RECEPTOR 2” (Vanderbilt University, priority 2021, published 2024).
Like-named read-outs stand apart in the source and are kept apart here.

What was measured:
[1] = normal animals
[2] = normal animals; remark: listed apart in the source
[3] = test system: central mGlu2 and mGlu3 receptors; settings: in vivo
[4] = C57Bl6/J mice
[5] = for activity in tail suspension test: Helpless (H) mice
[6] = mice
[7] = treatment for 7 days
[8] = olfactory bulbectomized rats, repeated administration for 14 days
[9] = social isolation reared mice
[10] = CFS model

SMILES	antidepressant-like effects in rat FST [1]	antidepressant-like effects in mouse TST [2]	hypolocomotor effect of mGlu2/3 agonist LY379268 [3]	immobility time in FST [4]	activity in tail suspension test [5]	marble-burying behavior [6]	freezing behavior [10]	further results
CCCCCCCOC(=O)[C@@]1(F)[C@@H]2C[C@@H](OCc3ccc(Cl)c(Cl)c3)[C@@](N)(C(=O)O)[C@@H]21 [BCI-838]	–	–	–	–	–	–	–	duration of inhibition of group II mGlu receptors by brain concentration of active metabolite BCI-632 (group II mGlu receptors; once-daily oral dosing): 22 h; Dutch APP transgene-associated learning and memory impairment (group II mGlu receptors; three months of treatment): reversed; anxiolytic effects (group II mGlu receptors; three months of treatment): anxiolytic effects; levels of monomeric and oAβ peptides in hippocampus and cortex (group II mGlu receptors; three months of treatment, two AD mouse models): decreased; hippocampal progenitor cell proliferation (group II mGlu receptors; wild-type and Alzheimer's diseased mice, 3 months): stimulated
N[C@](CC1c2ccccc2Oc2ccccc21)(C(=O)O)[C@H]1C[C@@H]1C(=O)O [LY341495]	Antidepressant-like effects	Antidepressant-like effects	achieved the same result	dose-dependently reduced	active	significantly reduce	–	antidepressant effect in helpless mice ([5]; acute administration): potent antidepressant effect
N[C@]1(C(=O)O)[C@H]2[C@@H](C[C@H]1OCc1ccc(Cl)c(Cl)c1)[C@]2(F)C(=O)O [MGS0039]	Antidepressant-like effects	Antidepressant-like effects	–	–	–	reduced	significantly decreased	number of escape failures [7]: significantly reduced; hyperactivity in the open field test [8]: attenuated; learning deficit in the passive avoidance test [8]: attenuated; increased immobility in FST [9]: reversed; spontaneous locomotor activity [6]: no significant change
Cc1cc(-c2cccc(C3=Nc4cc(C)c(C(F)(F)F)cc4NC(=O)C3)c2)cc(C)n1 [RO4491533]	–	–	reversed	dose-dependently reduced	active	–	–	–
CN1C(=O)CN=C(c2ccccc2)c2cc(Cl)ccc21 [diazepam]	–	–	–	–	–	–	significantly decreased	–
CNCCC(Oc1ccc(C(F)(F)F)cc1)c1ccccc1 (centres unmarked) [fluoxetine]	–	–	–	–	–	–	–	antidepressant effect in helpless mice ([5]; chronic (21 days) treatment): full antidepressant effect
